Reference: patent publication US6602664B2 (priority 1998, dated 2003)

Tests used:
[1] = test system: HIV; details: U.S. Pat. No. 4,916,122; cited from earlier work
[2] = U.S. Pat. No. 4,916,122; cited from earlier work
[3] = test system: mutant strains of HIV-1; assay: microbe, parasite or virus in culture; format: cell-based; details: for EC50 / Slope: human PBM cells
Protocol: Cells and viruses. […] Antimicrobial Agents Chemother 1992;36(11): 2423-2431.
Cell pellets were washed, centrifuged, lysed and the proviral DNA extracted as previously described. Cytotoxicity of the compounds was determined using the Promega Cell Titer 96 dye uptake assay (Madison, Wis.) in 1-2 day PHA-stimulated PBM cells after 5 days in culture. The median effective concentration (EC50) and inhibitory concentration (IC50) were derived from the computer-generated median effect plot of the dose-effect data, as described previously. […]
The mutant viruses tested are as follows: xxBRU Pitt (wild type HIV-1; the backbone used to prepare the other site directed mutagens); M184V (methionine to valine change at codon 184); K65R (lysine to arginine change at codon 65); T215Y (threonine to tyrosine change at codon 215); M184V/T215Y (virus with both mutations); 215/41 (virus with two mutations (threonine to tyrosine change at codon 215) and M4 1L (methionine to leucine change at codon 41)); 4X AZT (virus with four mutations associated with AZT therapy); D67N (aspartic acid to asparagine change at codon 67); K70R lysine to arginine change at codon 70); T215Y (defined as above); K219Q (lysine to glutamine change at codon 219); 964 pre (virus from a patient before they were on AZT therapy, and thus AZT sensitive); and 964 post (virus taken from the same patient after they were on AZT therapy, and thus is AZT resistant).

In the case of `[N-]=[N+]=N[C@H]1C[C@H](n2ccc(=O)[nH]c2=O)O[C@@H]1CO` [CS-87, 3′-Azido-2′,3′-dideoxyuridine], the anti-HIV activity [1] is listed as “significant anti-HIV activity”, the “toxicity compared with AZT” value [2] is listed as “lower toxicity than AZT” and the “FI^50 (fold increase EC50)” value [3] is listed as 87. It also gave an EC50 ([3]; 4X AZT Pitt.) of 17.0 µM, a Slope ([3]; 4X AZT Pitt.) of 0.54 and an EC50 ([3]; 215/4I Pitt.) of 19.1 µM. For the same compound, the Slope ([3]; 215/4I Pitt.) was 0.95, the “GFI^90 (fold increase EC90)” value ([3]; AZT-Post (964 post)) was 14 and the EC50 ([3]; AZT-Post (964 post)) was 63 µM. The Slope ([3]; AZT-Post (964 post)) was 1.64, the EC50 ([3]; AZT-Sen. (964 pre)) was 11.1 µM and the Slope ([3]; AZT-Sen. (964 pre)) was 0.65 ± 0.08. The “sensitivity of AZT-exposed virus” value ([3]; AZT-exposed virus) was “deceased sensitivity”, the EC50 ([3]; HIV-1/LAI) was 4.7 µM and the Slope ([3]; HIV-1/LAI) was 0.70. It also gave an EC50 ([3]; Human immunodeficiency virus 1, PBMC, 4X AZT Pitt.) of 0.3 µM, an EC50 ([3]; Human immunodeficiency virus 1, PBMC, 215/4I Pitt.) of 2.1 µM and an EC50 ([3]; Human immunodeficiency virus 1, PBMC, AZT-Post (964 post)) of 16.5 µM. It also gave an EC50 ([3]; Human immunodeficiency virus 1, PBMC, AZT-Sen. (964 pre)) of 0.4 µM, an EC50 ([3]; Human immunodeficiency virus 1, PBMC, HIV-1/LAI) of 0.2 µM and an EC50 ([3]; Human immunodeficiency virus 1, PBMC, K65R Pitt.) of 1.1 µM. For the same compound, the EC50 ([3]; Human immunodeficiency virus 1, PBMC, L74V Pitt.) was 0.6 µM, the EC50 ([3]; Human immunodeficiency virus 1, PBMC, M184V Pitt.) was 0.6 µM and the EC50 ([3]; Human immunodeficiency virus 1, PBMC, M184V/T215Y Pitt.) was 1.1 µM. The EC50 ([3]; Human immunodeficiency virus 1, PBMC, T215Y Pitt.) was 0.3 µM, the EC50 ([3]; Human immunodeficiency virus 1, PBMC, xxBRU Pitt. (wild type)) was 1.1 µM and the EC50 ([3]; K65R Pitt.) was 12 µM. For the same compound, the Slope ([3]; K65R Pitt.) was 0.92 ± 0.07, the EC50 ([3]; L74V Pitt.) was 3.8 µM and the Slope ([3]; L74V Pitt.) was 1.18 ± 0.10. The EC50 ([3]; M184V Pitt.) was 2.4 µM, the Slope ([3]; M184V Pitt.) was 1.55 and the EC50 ([3]; M184V/T215Y Pitt.) was 5.9 µM. It also gave a Slope ([3]; M184V/T215Y Pitt.) of 1.40, an EC50 ([3]; T215Y Pitt.) of 2.7 µM and a Slope ([3]; T215Y Pitt.) of 1.00 ± 0.11. For the same compound, the “sensitivity of site directed mutant viruses” value ([3]; mutations at other than the 70 codon in the RT region) was “remain sensitive”, the EC50 ([3]; xxBRU Pitt. (wild type)) was 7.3 µM and the Slope ([3]; xxBRU Pitt. (wild type)) was 1.16.
